In patent US20240301409A1, “Chemically Modified Small Activating RNA” (RACTIGEN THERAPEUTICS, priority 2021, published 2024):
Oligonucleotides are written 5' to 3', each unit as a sugar letter and its base; * is a phosphorothioate linkage, no mark a phosphodiester; rarer units and linkages stand in square brackets, end groups in braces. Plain capitals give the bases only. m = 2'-O-methyl; r = 2'-OH (RNA); f = 2'-fluoro

Columns and labels:
[1] = tested on: Rag1-40 target sequence in the 3′ UTR of firefly luciferase, COS-1 cells; experiment: Analysis of off-target effects (pOff-Target dual luciferase reporter in COS-1 cells); details: lysed 48 hours after transfection, luciferase activity
Method: A 26 bp fragment comprising the target site of Rag1-40 was cloned in the antisense orientation into the 3′ UTR region of the firefly luciferase gene in a pmirGLO dual luciferase vector. Vector plasmids were co-transfected with the indicated saRNAs into COS-1 cells. Cells were lysed 48 hours after transfection, and the resulting lysates were assessed for luciferase activity. Data represent mean±SD of at least two independent experiments. Dashed line represents comparisons to blank control (top dashed line) and Rag1-40 (bottom dashed line). Values close to the top dashed line indicate no off-target effect.
A 26 bp fragment comprising the Rag1-40 target sequence was cloned in the antisense orientation into a multiple cloning site (MCS) of the 3′ untranslated region of firefly luciferase of the pmirGLO dual luciferase vector (Promega, Fitchburg, WI), to obtain pOff-Target plasmid. Following E. coli transformation and overnight incubation, plasmids for each construct were prepared by standard method. Each plasmid was transfected into COS-1 monkey kidney epithelial cells using Lipofectamine 3000 (Invitrogen, Carlsbad, CA). Subsequently, saRNA was transfected using RNAiMAX. After 24 hours of incubation, COS-1 cells were lysed with 1× lysis buffer, and luciferase activity was measured using dual luciferase reporter gene assay system (Promega, WI, USA) following manufacturer's instructions.
To assess the off-target effects of unmodified and modified saRNAs, a sequence complementary to the sense oligonucleotide strand of Rag1-40 was cloned into the 3′UTR region of the luciferase gene in a pmirGLO dual luciferase vector. The vector plasmid was co-transfected with the saRNA into COS-1 cells. Cells were lysed 48 hours after transfection and the resulting lysates were assessed for luciferase activity.

RNase A = target: T1, RNase A (Bos taurus, UniProt P61823); experiment: saRNA stability analysis in the presence of RNase A (agarose gel); details: incubation 0 to 96 hours
T1 sequence (P61823 27-150): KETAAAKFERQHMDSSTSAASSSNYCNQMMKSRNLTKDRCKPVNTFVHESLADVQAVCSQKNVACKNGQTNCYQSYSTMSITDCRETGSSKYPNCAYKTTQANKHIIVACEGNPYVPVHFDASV

p21 gene [2] = experiment: p21 mRNA expression by RT-qPCR in T24 cells; type: cell-based, human; details: 10 nM
Method: (§1) Ku-7-LG and T24 cells were transfected with the indicated saRNA at a final concentration of 10 nM for 3 days. After transfection, the RNA was extracted with the Qiagen RNeasy kit. After reverse transcription, the ABI 7500 fast real-time PCR system was used for qPCR amplification. The GAPDH gene was amplified as an internal reference. […] Dashed line indicates duplex Rag1-40 with no chemical modification in comparison, and the values above the line indicate stronger activity. The control was blank transfection without oligonucleotide. dsCon2 is transfected with a double-stranded scramble RNA. The value of the ordinate represents the mean±SD of 2 repeated treatments.
(§2) The control and dsCon2 were blank transfection and scramble dsRNA transfection, respectively. The values in the ordinate represent the mean±SD of 2 repeated treatments.
(§3) Human bladder cancer cells Ku-7-LG (ATCC), J82 (ATCC) and T24 (ATCC) were cultured in McCoy medium (Gibco) comprising 10% calf serum (Sigma-Aldrich) and 1% penicillin/Streptomycin (Gibco). Cells were cultured at 37° C. under 5% CO2. Ku-7-LG, J82 and T24 cells were plated into 12-well plates at 10×10^4 cells per well, transfected with the small RNA at a concentration of 10 nM (unless otherwise specified) for three days, using RNAiMax (Invitrogen, Carlsbad, CA) according to the manufacturer's instructions. Two replicate wells were set for each treatment.
(§4) After transfection, the medium was discarded and to each well 500 μl cell lysate was added and incubated at room temperature for 5 minutes. RNA was extracted with the Qiagen RNeasy kit, and after reverse transcription, qPCR analysis was performed on the ABI 7500 Fast Real-time PCR system (Applied Biosystems). Each sample was amplified in 3 replicate wells.
(§5) The PCR reaction conditions are: 95° C. for 30 seconds, 95° C. for 5 seconds, 60° C. for 30 seconds, and 40 cycles of amplification. The GAPDH gene was amplified as an internal reference at the same time. p21 was amplified with the p21F1/R1 primer pair, and the specific sequences of the amplification primers are shown in Table 1.
(§6) In order to calculate the expression value (Erel) of p21 (target gene) of a saRNA transfection sample relative to the control treatment, Formula 1 is used to input the Ct values of the target gene and the internal reference gene for calculation.
(§7) wherein, CtTm is the Ct value of the target gene from the control treatment sample; CtTs is the Ct value of the target gene from the saRNA treated sample; CtRm is the Ct value of the internal reference gene from the control treatment sample; and CtRs is the Ct value of the internal reference gene from the saRNA treated sample.
(§8) The main purpose of introducing chemical modifications to regulatory oligonucleotides of a gene is to improve their pharmaceutical properties, including enhancing in vivo stability and mitigating off-target effects (e.g., sequence-dependent targeting of unrelated genes, sequence-dependent or independent immune stimulation), while maintaining their gene regulatory capacity (gene knockdown or activation). To assess the effect of chemical modification on the RNAa activity of saRNA on the p21 gene, 10 nM unmodified (Rag1-40) and modified (Rag1-40-1 to Rag1-40-34) duplexes were transfected into Ku-7-LG and T24 cells, respectively. After 72 hours, the mRNA expression level of p21 was assessed by RT-qPCR. All duplexes induced p21 mRNA expression in all […] at least double that of the control.
(§9) In order to further evaluate the expression level of p21 mRNA after the different durations of treatment by the chemically modified saRNA duplexes, two saRNAs (RAG1-40-31 and RAG1-40-53) were randomly selected from the above chemically modified saRNA duplexes for detection. RAG1-40-31 and RAG1-40-53 were transfected into Ku-7-LG and T24 cells at a final concentration of 10 nM, for 1, 2, 3, 4, 7 and 9 days, respectively. Each treatment was set up in duplicate. […]

Ku-7-LG cells = experiment: Cell cycle detection by flow cytometry in Ku-7-LG cells; type: cell-based, human; details: 48 hours
Method: RAG1-40-31 and RAG1-40-53 were transfected into Ku-7-LG cells at the final concentrations of 0.1, 1, 10 and 50 nM, and the transfection duration was 48 hours. Two replicate wells were used for each treatment. After transfection, the cell cycle was analyzed by flow cytometry, and the collected data were analyzed by MotFit software.
After transfection, the supernatant was discarded to collect cells. To each well 500 μL PBS was added for one wash and then discarded. To each well 100 μL trypsin was further added. 900 μL medium was added to stop digestion before transferring to a 1.5 mL centrifuge tube. All the cells were collected through centrifugation (400 rcf, 5 min) and counted (2×10^5 cells/200 μL PBS). Cold 70% absolute ethanol was added before incubation overnight at 4° C. After washing twice with PBS, 200 μL Krishan buffer was added before incubation at 4° C. for 1 hour. After washing twice with PBS, the supernatant was discarded and 200 μL PBS was added for cell re-suspension, then the cells were transferred to a 96-well plate and analyzed by flow cytometer. The collected data were analyzed with MotFit software.
In order to study the mechanism of cellular proliferation suppression, change in cell cycle was analyzed using flow cytometry in this example. Randomly selected saRNAs RAG1-40-31 and RAG1-40-53 were transfected into Ku-7-LG cells at final concentrations of 0.1, 1, 10 and 50 nM, respectively, for 48 hours. Each treatment was set in duplicate. Cell cycle was detected and analyzed as described in the general protocol above.

p21 gene [3] = experiment: p21 mRNA expression by RT-qPCR in Ku-7-LG cells; type: cell-based, human; details: 10 nM
Method: as §1, §2, §3, §4, §5, §6, §7, §8, §9

Rag1-40-19: saRNA duplex: sense mCmCAACUCAUUCUCCAAG*U*C (SEQ ID NO 15); antisense fUmAfCfUfUmGmGmAmGmAmAfUmGmAmGfUfUmGmGfCmA (SEQ ID NO 8) (sense mCmCrArArCrUrCrArUrUrCrUrCrCrArArG*rU*rC)
off-target effect compared to unmodified Rag1-40, in words [1]: mitigated or similar off-target effects | degradation of duplex at 96 hours (RNase A): little or no signs of degradation

Rag1-40-14: saRNA duplex: sense fCfCAACUCAUUCUCCAAGfUfC (SEQ ID NO 14); antisense fU*A*fCfUfUGGAGAAfUGAGfUfUGG*fC*A (SEQ ID NO 11) (sense CCAACUCAUUCUCCAAGUC; antisense UACUUGGAGAAUGAGUUGGCA; 2'-F modifications, phosphorothioates; modified_base (1)..(19) (1,2,18,19)=2′-fluoro; modified_base (1)..(21) (1,2,3,19,20,21)=phosphorothioate (PS) backbone modification; modified_base (1)..(20) (1,3,4,5,12,16,17,20)=2′-fluoro)
off-target effect compared to unmodified Rag1-40, in words [1]: mitigated or similar off-target effects | degradation of duplex at 96 hours (RNase A): little or no signs of degradation

RAG1-40-53: saRNA duplex: sense mCmCAACfUCAfUfUCfUCCAAG*mU*mC (SEQ ID NO 24); antisense fUAfCfUfUGGAGAAfUGAGfUfUGG*fC*fA (SEQ ID NO 25) (sense CCAACUCAUUCUCCAAGUC; antisense UACUUGGAGAAUGAGUUGGCA; 2'-F, 2'-OMe, phosphorothioate modifications; modified_base (1)..(19) (1,2,18,19)=2′-O-methyl(2′-OMe); modified_base (6)..(12) (6,9,10,12)=2′-fluoro; modified_base (17)..(19) (17,18,19)=phosphorothioate (PS) backbone modification; modified_base (1)..(21) (1,3,4,5,12,16,17,20,21)=2′-fluoro; modified_base (20)..(21) (20,21)=phosphorothioate (PS) backbone modification)
increase of expression level of p21 mRNA compared with the control group (p21 gene [2]; 1 day): 2.2 fold | increase of expression level of p21 mRNA compared with the control group (p21 gene [2]; 2 days): 3.5 fold | increase of expression level of p21 mRNA compared with the control group (p21 gene [2]; 3 days): 7.8 fold | increase of expression level of p21 mRNA compared with the control group (p21 gene [2]; 4 days): 4.5 fold | increase of expression level of p21 mRNA compared with the control group (p21 gene [2]; 7 days): 1.2 fold | increase of expression level of p21 mRNA compared with the control group (p21 gene [2]; 9 days): 1.1 fold | percentage of cells in DNA anaphase/mitosis (G2/M) (Ku-7-LG cells; 0.1 nM): 7% | percentage of cells in DNA replication phase (S phase) (Ku-7-LG cells; 0.1 nM): 36% | percentage of cells in prophase of DNA synthesis (G0/G1) (Ku-7-LG cells; 0.1 nM): 57% | percentage of cells in DNA anaphase/mitosis (G2/M) (Ku-7-LG cells; 1 nM): 10% | percentage of cells in DNA replication phase (S phase) (Ku-7-LG cells; 1 nM): 24% | percentage of cells in prophase of DNA synthesis (G0/G1) (Ku-7-LG cells; 1 nM): 66% | percentage of cells in DNA anaphase/mitosis (G2/M) (Ku-7-LG cells; 10 nM): 9% | percentage of cells in DNA replication phase (S phase) (Ku-7-LG cells; 10 nM): 12% | percentage of cells in prophase of DNA synthesis (G0/G1) (Ku-7-LG cells; 10 nM): 79% | percentage of cells in DNA anaphase/mitosis (G2/M) (Ku-7-LG cells; 50 nM): 8% | percentage of cells in DNA replication phase (S phase) (Ku-7-LG cells; 50 nM): 16% | percentage of cells in prophase of DNA synthesis (G0/G1) (Ku-7-LG cells; 50 nM): 76% | increase of expression level of p21 mRNA compared with the control group (p21 gene [3]; 1 day): 1.4 fold | increase of expression level of p21 mRNA compared with the control group (p21 gene [3]; 2 days): 13.0 fold | increase of expression level of p21 mRNA compared with the control group (p21 gene [3]; 3 days): 9.1 fold | increase of expression level of p21 mRNA compared with the control group (p21 gene [3]; 4 days): 4.5 fold | increase of expression level of p21 mRNA compared with the control group (p21 gene [3]; 7 days): 3.2 fold | increase of expression level of p21 mRNA compared with the control group (p21 gene [3]; 9 days): 4.1 fold

Rag1-40-1: saRNA duplex: sense mCmCAACUCAUUCUCCAAGmUmC (SEQ ID NO 5); antisense fUAfCfUfUGGAGAAfUGAGfUfUGGfCA (SEQ ID NO 6) (sense CCAACUCAUUCUCCAAGUC; antisense UACUUGGAGAAUGAGUUGGCA; 2'-OMe and 2'-F modifications; modified_base (1)..(19) (1,2,18,19)=2′-O-methyl(2′-OMe); modified_base (1)..(20) (1,3,4,5,12,16,17,20)=2′-fluoro)
off-target effect compared to unmodified Rag1-40, in words [1]: completely inhibited | degradation of duplex at 96 hours (RNase A): little or no signs of degradation
